In the NIST ThermoML archive (doi:10.1016/j.jct.2019.01.001):
Numbers after ± are expanded uncertainties.

Columns and labels:
[1] = 293.15 K; 101.33 kPa; Liquid; Vibrating tube method
[2] = wn = mass fraction of the nth substance listed; settings: 293.15 K; 100 kPa; Liquid; Vibrating tube method; w1 = 0.7

| mass density [1] | Compound | mass density [2] |
| --- | --- | --- |
| 791.9 ± 0.4 kg/m3 | CO [methanol] | – |
| 810.1 ± 1.6 kg/m3 | CCCC(C)O (stereo unspecified) [pentan-2-ol] | – |
| 998.5 ± 0.4 kg/m3 | O [water] | – |
| – | O=[N+]([O-])O [nitric acid] + O | 1411.5 ± 2.9 kg/m3 |

| Compound | mass density [1] | mass density [2] |
| --- | --- | --- |
| CC(=O)CC(C)C [4-methylpentan-2-one] | 800.9 ± 1.6 kg/m3 | – |
| CCn1cc[n+](C)c1.F[B-](F)(F)F [1-ethyl-3-methylimidazolium tetrafluoroborate] | 1283 ± 5.3 kg/m3 | – |
